US20250144220A1, “CONJUGATE FOR PREVENTING AND TREATING VIRAL INFECTIONS AND USE THEREOF” (priority 2021, published 2025)
Like-named read-outs stand apart in the source and are kept apart here.

Key:
[1] = system: IFV B/Lee/40; test: microbe, parasite or virus in culture; type: cell-based; conditions: unidentified influenza virus, 120 h
[2] = system: IFV A/California/2/2014 (H3N2); test: microbe, parasite or virus in culture; type: cell-based; conditions: Influenza A virus, 120 h
[3] = system: H1N1(A/PR/8/34) virus; test: microbe, parasite or virus in culture; type: cell-based; conditions: Influenza A virus, 96 h
[4] = target: Influenza A H1N1 (A/California/04/2009) Neuraminidase/NA (Influenza A virus (A/California/04/2009(H1N1)), UniProt C3W5S3); test: biochemical; conditions: neuraminidase 1 U/ml
[5] = in vitro; type: cell-based; conditions: dog
Procedure: • Toxicity of the tested compounds to MDCK cells was quantified by MDCK cell lines. […] The cell control without compound was also configured. The cells were incubated in an incubator for 4 days. • 4) 50 μL of Cell-titer Glo was added to each well, and the chemiluminescence was detected by a Microplate Reader. Inhibition rate=(average value of cell control−value of tested compounds)/average value of cell control […]

[6] = system: B/YZ29/2019 (Victoria); test: microbe, parasite or virus in culture; type: cell-based; conditions: unidentified influenza virus, MDCK cells, 72 hours
[7] = system: A/Chicken/Eastern/JTC11/2013 (H7N9); test: microbe, parasite or virus in culture; type: cell-based; conditions: Influenza A virus, H7N9, MDCK, 72 h
[8] = system: A/Chicken/Jiangsu/k0402/2010 (H5N1); test: microbe, parasite or virus in culture; type: cell-based; conditions: Influenza A virus, H5N1, MDCK, 72 h
[9] = system: B/Jiangsu/YZ08/2018 (Yamagata); test: microbe, parasite or virus in culture; type: cell-based; conditions: unidentified influenza virus, MDCK cells, 72 hours
[10] = system: H1N1(A/PR/8/34); test: microbe, parasite or virus in culture; type: cell-based, influenza virus H1N1(A/PR/8/34); conditions: Influenza A virus, MDCK, 96 h
[11] = MDCK cells, H1N1(A/PR/8/34), 4 days, Cell-titer Glo
[12] = IFV B/Lee/40, MDCK cells, 5 days, read-out: EC50
[13] = IFV A/California/2/2014 (H3N2), MDCK cells, 5 days, read-out: EC50

Question: For O=C1c2c(O)c(=O)ccn2N([C@@H]2c3ccccc3SCc3c2ccc(F)c3F)[C@@H]2COCCN12 [Baloxavir, baloxivir], which EC50 ([1]; MDCK) is on record?
Answer: The EC50 was 1.47 nM.

Question: What about the EC50 ([2]; H3N2, MDCK) of the same molecule?
Answer: Its EC50 is 0.39 nM.

Question: With C#CCOCCOCCOCCOCCOC(=O)N(CCOCCN(C)C(=O)O[C@@H]([C@@H]1OC(C(=O)O)=C[C@H](NC(=N)N)[C@H]1NC(C)=O)[C@H](O)CO)CCOCCN(C)C(=O)O[C@@H]([C@@H]1OC(C(=O)O)=C[C@H](NC(=N)N)[C@H]1NC(C)=O)[C@H](O)CO [C-Inter-1] as the molecule, how does the EC50 [3, 11] read?
Answer: Its EC50 is 0.28 nM.

Question: What about the IC50 [4] of the same molecule?
Answer: The IC50 was 10.4 nM.

Question: And the CC50 at 4 days [5]?
Answer: The CC50 at 4 days was greater than 100000 nM.

Question: With C#CCOCCOCCOCCOCCNC(=O)N(CCOCCN(C)C(=O)O[C@@H]([C@@H]1OC(C(=O)O)=C[C@H](NC(=N)N)[C@H]1NC(C)=O)[C@H](O)CO)CCOCCN(C)C(=O)O[C@@H]([C@@H]1OC(C(=O)O)=C[C@H](NC(=N)N)[C@H]1NC(C)=O)[C@H](O)CO [C-Inter-2] as the molecule, how does the EC50 [3, 11] read?
Answer: Its EC50 is 0.42 nM.

Question: What about the IC50 [4] of the same molecule?
Answer: The IC50 was 14.2 nM.

Question: What about the CC50 at 4 days [5] of the same molecule?
Answer: The CC50 at 4 days was greater than 100000 nM.

Question: Which EC50 [3, 11] does the source give for C#CCOCCOCCOCCN1CCC(N(CCOCCN(C)C(=O)O[C@@H]([C@@H]2OC(C(=O)O)=C[C@H](NC(=N)N)[C@H]2NC(C)=O)[C@H](O)CO)CCOCCN(C)C(=O)O[C@@H]([C@@H]2OC(C(=O)O)=C[C@H](NC(=N)N)[C@H]2NC(C)=O)[C@H](O)CO)CC1 [C-Inter-3] here?
Answer: The EC50 was 0.39 nM.

Question: What about the IC50 [4] of the same molecule?
Answer: Its IC50 is 21.3 nM.

Question: And the CC50 at 4 days [5]?
Answer: The CC50 at 4 days was greater than 100000 nM.

Question: Which IC50 [4] does the source give for C#CCOCCOCCOCCN1CCN(C(=O)N(CCOCCN(C)C(=O)O[C@@H]([C@@H]2OC(C(=O)O)=C[C@H](NC(=N)N)[C@H]2NC(C)=O)[C@H](O)CO)CCOCCN(C)C(=O)O[C@@H]([C@@H]2OC(C(=O)O)=C[C@H](NC(=N)N)[C@H]2NC(C)=O)[C@H](O)CO)CC1 [C-Inter-4] here?
Answer: The IC50 was 48.7 nM.

Question: With C#CCOCCOCCOCCOC1CCN(C(=O)N(CCOCCN(C)C(=O)O[C@@H]([C@@H]2OC(C(=O)O)=C[C@H](NC(=N)N)[C@H]2NC(C)=O)[C@H](O)CO)CCOCCN(C)C(=O)O[C@@H]([C@@H]2OC(C(=O)O)=C[C@H](NC(=N)N)[C@H]2NC(C)=O)[C@H](O)CO)CC1 [C-Inter-5] as the molecule, how does the EC50 [3, 11] read?
Answer: Its EC50 is 0.45 nM.

Question: What about the IC50 [4] of the same molecule?
Answer: The IC50 was 37 nM.

Question: And the CC50 at 4 days [5]?
Answer: The CC50 at 4 days was greater than 100000 nM.

Question: With C#CCOCCOCCOCCOCCN(C)C(=O)N(CCOCCN(C)C(=O)O[C@@H]([C@@H]1OC(C(=O)O)=C[C@H](NC(=N)N)[C@H]1NC(C)=O)[C@H](O)CO)CCOCCN(C)C(=O)O[C@@H]([C@@H]1OC(C(=O)O)=C[C@H](NC(=N)N)[C@H]1NC(C)=O)[C@H](O)CO [C-Inter-6] as the molecule, how does the EC50 [3, 11] read?
Answer: The EC50 was 0.25 nM.

Question: What about the IC50 [4] of the same molecule?
Answer: Its IC50 is 11.9 nM.

Question: What about the CC50 at 4 days [5] of the same molecule?
Answer: Its CC50 at 4 days is greater than 100000 nM.

Question: Which EC50 [3, 11] does the source give for C#CCOCCOCCOCCOCCNS(=O)(=O)N(CCOCCN(C)C(=O)O[C@@H]([C@@H]1OC(C(=O)O)=C[C@H](NC(=N)N)[C@H]1NC(C)=O)[C@H](O)CO)CCOCCN(C)C(=O)O[C@@H]([C@@H]1OC(C(=O)O)=C[C@H](NC(=N)N)[C@H]1NC(C)=O)[C@H](O)CO [C-Inter-7] here?
Answer: The EC50 was 0.57 nM.

Question: What about the IC50 [4] of the same molecule?
Answer: Its IC50 is 7.64 nM.

Question: And the CC50 at 4 days [5]?
Answer: The CC50 at 4 days was greater than 100000 nM.

Question: Which results are given for C#CCOCCOCCOCCNC(=N)N(CCOCCN(C)C(=O)O[C@@H]([C@@H]1OC(C(=O)O)=C[C@H](NC(=N)N)[C@H]1NC(C)=O)[C@H](O)CO)CCOCCN(C)C(=O)O[C@@H]([C@@H]1OC(C(=O)O)=C[C@H](NC(=N)N)[C@H]1NC(C)=O)[C@H](O)CO [C-Inter-10]?
Answer: EC50 [3, 11]: 0.39 nM; IC50 [4]: 10.8 nM; CC50 at 4 days [5]: > 100000 nM

Question: With CCC(CC)O[C@@H]1C=C(C(=O)O)C[C@H](N)[C@H]1NC(C)=O [Oseltamivir acid] as the molecule, how does the EC50 [1, 12] read?
Answer: The EC50 was 801 nM.

Question: What about the EC50 [6] of the same molecule?
Answer: Its EC50 is 710 nM.

Question: What about the EC50 [7] of the same molecule?
Answer: The EC50 was 540 nM.

Question: And the EC50 [8]?
Answer: Its EC50 is 210 nM.

Question: And the EC50 [9]?
Answer: The EC50 was 780 nM.

Question: And the EC50 [2, 13]?
Answer: The EC50 was greater than 100000 nM.

Question: With CC(=O)N[C@H]1[C@H]([C@H](O)[C@H](O)CO)OC(C(=O)O)=C[C@@H]1N=C(N)N [Zanamivir, zanamivir, reference compound] as the molecule, how does the EC50 [10] read?
Answer: The EC50 was 45.7 nM.

Question: And the EC50 [1, 12]?
Answer: Its EC50 is 57.5 nM.

Question: And the EC50 [6]?
Answer: Its EC50 is 59 nM.

Question: And the EC50 ([3]; MDCK)?
Answer: The EC50 was 39.7 nM.

Question: And the EC50 [9]?
Answer: The EC50 was 90 nM.

Question: And the EC50 [2, 13]?
Answer: The EC50 was greater than 10000 nM.

Question: And the CC50 [5]?
Answer: The CC50 was greater than 100000 nM.
